Experimental data published in ChEMBL document CHEMBL1201862, “PubChem BioAssay data set” (2004).
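1) Cells in 96-well plates. 2) Compound, 48 h, 5 concentrations. 3) Linear interpolation between surrounding doses. 4) Unreached endpoint = highest concentration. GI50: concentration for 50% inhibition of growth.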 Activity calls are given as the source filed them. Rule as the data show it: active = GI50 up to about 1.1 µM and inactive = higher.

Experiments:
Assay in all cases: growth of human tumour cells (NCI), 48 h
BT-549 = test system: BT-549
DU-145 = test system: DU-145
HCT-116 = test system: HCT-116
HOP-62 = test system: HOP-62
HOP-92 = test system: HOP-92
Hs-578T = test system: Hs-578T
K562 = test system: K562
MCF7 = test system: MCF7
MDA-N = test system: MDA-N
Malme-3M = test system: Malme-3M
NCI/ADR-RES = test system: NCI/ADR-RES
OVCAR-3 = test system: OVCAR-3
RPMI-8226 = test system: RPMI-8226
RXF 393 = test system: RXF 393
SF-539 = test system: SF-539
SK-MEL-5 = test system: SK-MEL-5
SK-OV-3 = test system: SK-OV-3
SNB-75 = test system: SNB-75
U-251 = test system: U-251
UACC-62 = test system: UACC-62

SMILES | GI50 (BT-549) | GI50 (DU-145) | GI50 (HCT-116) | GI50 (HOP-62) | GI50 (HOP-92) | GI50 (Hs-578T) | GI50 (K562) | GI50 (MCF7) | GI50 (MDA-N) | GI50 (Malme-3M) | GI50 (NCI/ADR-RES) | GI50 (OVCAR-3) | GI50 (RPMI-8226) | GI50 (RXF 393) | GI50 (SF-539) | GI50 (SK-MEL-5) | GI50 (SK-OV-3) | GI50 (SNB-75) | GI50 (U-251) | GI50 (UACC-62)
O=C1c2ccccc2C(=O)c2c1oc1cc(O)c(Cl)cc21 | 4.97 µM (inactive) | 4.89 µM (inactive) | 5.27 µM (inactive) | 10.7 µM (inactive) | 8.13 µM (inactive) | 2.29 µM (inactive) | 13.5 µM (inactive) | 8.11 µM (inactive) | 1.75 µM (inactive) | 1.07 µM (active) | 12.7 µM (inactive) | 2.61 µM (inactive) | 4.54 µM (inactive) | 9.46 µM (inactive) | 5.41 µM (inactive) | 0.299 µM (active) | 17.2 µM (inactive) | 2.88 µM (inactive) | 5.36 µM (inactive) | 1.93 µM (inactive)
CCN(CC)c1ccc(/C=C/c2ccnc3ccccc23)cc1 | > 100 µM (inactive) | > 100 µM (inactive) | > 100 µM (inactive) | > 100 µM (inactive) | > 100 µM (inactive) | > 100 µM (inactive) | > 100 µM (inactive) | > 100 µM (inactive) | > 100 µM (inactive) | > 100 µM (inactive) | > 100 µM (inactive) | > 100 µM (inactive) | > 100 µM (inactive) | > 100 µM (inactive) | > 100 µM (inactive) | > 100 µM (inactive) | > 100 µM (inactive) | > 100 µM (inactive) | > 100 µM (inactive) | > 100 µM (inactive)
NCCC1CN(C(=O)OCc2ccccc2)c2ccccc21 (stereo not given) | 16.8 µM (inactive) | 17.3 µM (inactive) | 3.59 µM (inactive) | 23.1 µM (inactive) | 5.45 µM (inactive) | 26.2 µM (inactive) | 4.58 µM (inactive) | 1.01 µM (active) | 13.5 µM (inactive) | 14.8 µM (inactive) | 15.1 µM (inactive) | 16.7 µM (inactive) | 12.8 µM (inactive) | 8.45 µM (inactive) | 3.44 µM (inactive) | 11.2 µM (inactive) | > 42.4 µM (inactive) | 12.3 µM (inactive) | 14.3 µM (inactive) | 15.6 µM (inactive)
ON[C@H]1C[C@@H](n2cnc3c(NC4CC4)ncnc32)[C@H](O)[C@@H]1O | > 100 µM (inactive) | > 100 µM (inactive) | > 100 µM (inactive) | > 100 µM (inactive) | > 100 µM (inactive) | > 100 µM (inactive) | > 100 µM (inactive) | > 100 µM (inactive) | > 100 µM (inactive) | > 100 µM (inactive) | > 100 µM (inactive) | > 100 µM (inactive) | > 100 µM (inactive) | > 100 µM (inactive) | > 100 µM (inactive) | > 100 µM (inactive) | > 100 µM (inactive) | > 100 µM (inactive) | > 100 µM (inactive) | > 100 µM (inactive)
c1ccc2c(c1)/C(=N\NC1=NCCN1)c1nc3ccccc3nc1-2 | 20.9 µM (inactive) | 10.6 µM (inactive) | 0.863 µM (active) | 3.72 µM (inactive) | 2.58 µM (inactive) | 16.6 µM (inactive) | 4.52 µM (inactive) | 3.32 µM (inactive) | 7.19 µM (inactive) | 10.2 µM (inactive) | 5.85 µM (inactive) | 3.24 µM (inactive) | 1 µM (active) | 2.71 µM (inactive) | 5.31 µM (inactive) | 2.6 µM (inactive) | 1.54 µM (inactive) | 0.923 µM (active) | 6.87 µM (inactive) | 2.49 µM (inactive)
CCC[N+](C)(C)CCCNC(=O)c1c(O)c2ccccc2[nH]c1=O | 89.1 µM (inactive) | > 100 µM (inactive) | > 100 µM (inactive) | > 100 µM (inactive) | > 100 µM (inactive) | > 100 µM (inactive) | > 100 µM (inactive) | > 100 µM (inactive) | > 100 µM (inactive) | 24.3 µM (inactive) | > 100 µM (inactive) | > 100 µM (inactive) | > 100 µM (inactive) | > 100 µM (inactive) | > 100 µM (inactive) | 15.9 µM (inactive) | > 100 µM (inactive) | > 100 µM (inactive) | > 100 µM (inactive) | > 100 µM (inactive)
Oc1c(O)c(Cc2ccccc2)c(Cc2ccccc2)c(Cc2ccccc2)c1Cc1ccccc1 | > 10 µM (inactive) | > 10 µM (inactive) | > 10 µM (inactive) | > 10 µM (inactive) | > 10 µM (inactive) | > 10 µM (inactive) | > 10 µM (inactive) | > 10 µM (inactive) | > 10 µM (inactive) | > 10 µM (inactive) | > 10 µM (inactive) | > 10 µM (inactive) | > 10 µM (inactive) | > 10 µM (inactive) | > 10 µM (inactive) | > 10 µM (inactive) | > 10 µM (inactive) | > 10 µM (inactive) | > 10 µM (inactive) | > 10 µM (inactive)
CC1(c2nc3cc(Cl)c(Cl)cc3[nH]2)CCC(CO)C(C)(C)O1 (stereo not given) | 17.1 µM (inactive) | 38 µM (inactive) | 31.4 µM (inactive) | 33.3 µM (inactive) | 44 µM (inactive) | 14.8 µM (inactive) | 36.7 µM (inactive) | 35.9 µM (inactive) | 29 µM (inactive) | 24.5 µM (inactive) | 17.7 µM (inactive) | 29.5 µM (inactive) | 16.9 µM (inactive) | 47.4 µM (inactive) | 25.4 µM (inactive) | 13.2 µM (inactive) | 94.2 µM (inactive) | 14.8 µM (inactive) | 38.6 µM (inactive) | 17.6 µM (inactive)
Cc1ccc(C2=Nn3c(nc4sc(C)c(C)c4c3=O)SC2)cc1 | > 100 µM (inactive) | > 100 µM (inactive) | > 100 µM (inactive) | 64.1 µM (inactive) | > 100 µM (inactive) | > 100 µM (inactive) | > 100 µM (inactive) | > 100 µM (inactive) | > 100 µM (inactive) | > 100 µM (inactive) | > 100 µM (inactive) | > 100 µM (inactive) | > 100 µM (inactive) | > 100 µM (inactive) | > 100 µM (inactive) | > 100 µM (inactive) | > 100 µM (inactive) | 56.4 µM (inactive) | > 100 µM (inactive) | > 100 µM (inactive)
OCC1OC(NCCNCCNC2OC(CO)C(O)C(O)C2O)C(O)C(O)C1O (stereo not given) | > 100 µM (inactive) | > 100 µM (inactive) | > 100 µM (inactive) | > 100 µM (inactive) | > 100 µM (inactive) | > 100 µM (inactive) | > 100 µM (inactive) | > 100 µM (inactive) | > 100 µM (inactive) | > 100 µM (inactive) | > 100 µM (inactive) | > 100 µM (inactive) | > 100 µM (inactive) | > 100 µM (inactive) | > 100 µM (inactive) | > 100 µM (inactive) | > 100 µM (inactive) | > 100 µM (inactive) | > 100 µM (inactive) | > 100 µM (inactive)
O=C(O)/C=C/C(=O)N1Cc2cc3ccccc3nc2C1 | > 100 µM (inactive) | > 100 µM (inactive) | > 100 µM (inactive) | > 100 µM (inactive) | > 100 µM (inactive) | > 100 µM (inactive) | > 100 µM (inactive) | > 100 µM (inactive) | > 100 µM (inactive) | > 100 µM (inactive) | > 100 µM (inactive) | > 100 µM (inactive) | > 100 µM (inactive) | > 100 µM (inactive) | > 100 µM (inactive) | > 100 µM (inactive) | > 100 µM (inactive) | > 100 µM (inactive) | > 100 µM (inactive) | > 100 µM (inactive)
Cc1c2c(OCC(O)CN3CCN(c4ccccc4)CC3)nn(C)c(=O)c2c(C)n1-c1ccccc1 (stereo not given) | 21.9 µM (inactive) | 37.9 µM (inactive) | 17.5 µM (inactive) | 39.6 µM (inactive) | 44.4 µM (inactive) | 24.4 µM (inactive) | 27 µM (inactive) | 18.4 µM (inactive) | 19.1 µM (inactive) | 21.8 µM (inactive) | 24.6 µM (inactive) | 20.5 µM (inactive) | 21.6 µM (inactive) | 26.9 µM (inactive) | 19.2 µM (inactive) | 16.6 µM (inactive) | 43 µM (inactive) | 19.8 µM (inactive) | 16.6 µM (inactive) | 17.1 µM (inactive)
CC(C)/C=N\n1c(N)c(C#N)c(C#N)c1C(C)C | 24.2 µM (inactive) | 35.6 µM (inactive) | 24.5 µM (inactive) | 31.1 µM (inactive) | 13 µM (inactive) | 20.4 µM (inactive) | 24 µM (inactive) | 38.5 µM (inactive) | 18.6 µM (inactive) | 22.8 µM (inactive) | 23.3 µM (inactive) | 11.7 µM (inactive) | 14.6 µM (inactive) | 18.1 µM (inactive) | 18.9 µM (inactive) | 15.7 µM (inactive) | 45.1 µM (inactive) | 4.67 µM (inactive) | 28.9 µM (inactive) | 12.3 µM (inactive)
COC1CC(C)(N)C(O)C(C)O1 (stereo not given) | > 100 µM (inactive) | > 100 µM (inactive) | > 100 µM (inactive) | > 100 µM (inactive) | > 100 µM (inactive) | > 100 µM (inactive) | > 100 µM (inactive) | > 100 µM (inactive) | > 100 µM (inactive) | > 100 µM (inactive) | > 100 µM (inactive) | > 100 µM (inactive) | > 100 µM (inactive) | > 100 µM (inactive) | > 100 µM (inactive) | > 100 µM (inactive) | > 100 µM (inactive) | > 100 µM (inactive) | > 100 µM (inactive) | > 100 µM (inactive)
